{"source": "patent US20120213707A1", "about": "“Riboflavin Based Aerosol and Use as Placebo in Trials” (MPEX PHARMACEUTICALS, INC., priority 2009, published 2012)", "key": {"Sprague-Dawley rats": {"test_system": "Sprague-Dawley rats", "assay": "28-day aerosolized liquid inhalation (nose-only) toxicity study in Sprague-Dawley rats", "assay_type": "in vivo", "text": "(§1) The objective of the study was to determine the toxicity and toxicokinetic profile of the test article, riboflavin 5′-phosphate, following inhalation (nose-only) administration to rats for 28 consecutive days.\nTest Article: riboflavin 5′-phosphate sodium salt hydrate; alternate identity: vitamin B2 phosphate; description: yellow crystals; potency: 74%. Vehicle article: saline (0.9% (w/v) NaCl for injection); description: clear colorless solution. Test system: rat (rattus norvegicus); strain: Sprague-Dawley Crl:CD (SD).\nThe test (0.5 mg/mL, 2.0 mg/mL, 5.0 mg/mL) and/or vehicle control formulations (0 mg/mL) for each group were prepared fresh daily on each day by dissolving the test article in saline. All prepared test article formulations were protected from light and kept at room temperature (RT).\n(§2) Treatment: Daily inhalation by nose-only exposure for 60 minutes. Duration of treatment: 28 Days.\n(§3) The aerosol was produced by metering the flow of the test article or vehicle formulations to 3 clinical nebulizers (Sidestream) connected to high velocity airstreams (10 L/min to each nebuliser). The aerosol produced was discharged through a 40 mm diameter tube into a flow-past inhalation exposure system. The airflow rate through the exposure system was monitored and recorded manually during the aerosol generation. Airflow to the exposure system was controlled by the absolute volume of air supplying the aerosol generators using variable area flow meters.\n(§4) Assessments of mortality, clinical signs, body weights, food consumption, ophthalmology, functional observation battery and clinical chemistry, hematology, coagulation and urinalysis were performed. Plasma prepared from blood samples were collected from designated animals on the first and last days of the study and analyzed for Riboflavin 5′-phosphate content and toxicokinetic evaluation. All toxicology (main study) animals were euthanized upon completion of the 28-day treatment period and selected tissues were retained, weighed and examined microscopically. Toxicokinetic animals were euthanized following completion of blood sampling and were not subjected to necropsy examination or tissue collection. The following tables summarize tests, methods, and abbreviations used in hematology tests (Table 3), coagulation tests (Table 4), clinical chemistry tests (Table 5), and urinalysis (Table 6)."}, "[1]": {"assay_type": "in vivo, rat (rattus norvegicus)", "description": "as §1, §2, §4"}, "[2]": {"assay": "Aerosol particle size distribution, rat nose-only exposure system (7-Stage Mercer Cascade Impactor)", "assay_type": "physicochemical", "text": "as §3\nDeterminations of aerosol concentration, particle size distribution, oxygen concentration, relative humidity and temperature was performed on test atmosphere samples collected from a representative port of the exposure system, with a collection sample flow-rate of 1 L/min. The sample flow rates were precisely controlled using variable area flow meters that were calibrated using a primary airflow calibrator before use. The absolute volume of each aerosol concentration sample was measured using a wet type gas meter.\nThe distribution of particle size in the generated aerosols for Groups 2 to 4 was measured weekly during the treatment period by collecting samples into a 7-Stage Mercer Cascade Impactor and the sample substrates obtained were transferred to the analytical chemistry laboratory of ITR Laboratories Canada Inc. for the chemical determination of the particle size of the aerosolized Riboflavin 5′-phosphate using a validated analytical method (ITR Study No. 40241). The distribution of particle size in the generated aerosols for Group 1 was estimated once weekly by gravimetric determination. The mass median aerodynamic diameter (MMAD) and the Geometric Standard Deviation (GSD) were calculated based on the results obtained from the impactor using a log-probit transformation."}, "[3]": {"details": "female, Sprague-Dawley, rat, in vivo, 0.96 mg/kg/day"}, "[4]": {"details": "female, Sprague-Dawley, rat, in vivo, 2.4 mg/kg/day"}, "[5]": {"details": "male, Sprague-Dawley, rat, in vivo, 2.4 mg/kg/day"}, "[6]": {"details": "male, Sprague-Dawley, rat, in vivo, inhaled or intranasal, 0.96 mg/kg/day"}, "[7]": {"details": "Group 2 Low Dose, 0.5 mg/mL formulation"}, "[8]": {"details": "Group 3 Mid Dose, 2.0 mg/mL formulation"}, "[9]": {"details": "Group 4 High Dose, 5.0 mg/mL formulation"}}, "note": "Like-named read-outs stand apart in the source and are kept apart here.", "data": [{"smiles": "Cc1cc2nc3c(=O)[nH]c(=O)nc-3n(C[C@H](O)[C@H](O)[C@H](O)COP(=O)(O)O)c2cc1C", "note": "[riboflavin 5′-phosphate]", "values": [{"measurement": "No Observed Effect Level (NOEL)", "setting": "Sprague-Dawley rats; Sprague-Dawley rats, once daily inhaled, 28 consecutive days, high dose group", "result": 2.479, "unit": "mg/kg/day"}, {"measurement": "clinical chemistry", "setting": "Sprague-Dawley rats; rat, in vivo", "result": "no changes noted in any clinical chemistry parameters that were considered to be treatment-related"}, {"measurement": "coagulation times", "setting": "Sprague-Dawley rats; rat, in vivo", "result": "unaffected by treatment"}, {"measurement": "functional observation battery", "setting": "Sprague-Dawley rats; rat, in vivo", "result": "no changes noted in any functional observation battery parameters that were considered to be treatment-related"}, {"measurement": "hematology", "setting": "Sprague-Dawley rats; rat, in vivo", "result": "no changes noted in any haematology parameters that were considered to be treatment-related"}, {"measurement": "macroscopic findings at necropsy", "setting": "Sprague-Dawley rats; rat, in vivo", "result": "no findings attributed to the test article administration"}, {"measurement": "microscopic findings", "setting": "Sprague-Dawley rats; rat, in vivo", "result": "no microscopic findings that were considered to be test article related"}, {"measurement": "urinalysis", "setting": "Sprague-Dawley rats; rat, in vivo", "result": "no changes in any of the urinalysis parameters evaluated that were considered affected by treatment"}, {"measurement": "adverse effects", "setting": "Sprague-Dawley rats; rat, in vivo, 2.4 mg/kg/day", "result": "no adverse effects were observed"}, {"measurement": "mortality", "setting": "Sprague-Dawley rats; rats, 0.244 mg/kg/day, considered accidental (restraint), not test article related", "result": "One male rat dosed at 0.244 mg/kg/day was found dead on Day 12"}, {"measurement": "local or systemic toxicity (histology of lymphoid and respiratory tract tissues)", "setting": "Sprague-Dawley rats; rats, 28 days inhalation", "result": "no indications of local or systemic toxicity"}, {"measurement": "tolerability", "setting": "Sprague-Dawley rats; rats, nose-only inhalation, 28 consecutive days", "result": "well tolerated"}, {"measurement": "Cmax ratio (M/F)", "setting": "[1]; both, Sprague-Dawley, rat, in vivo, 0.96 mg/kg/day", "result": 1.59}, {"measurement": "AUC ratio (M/F)", "setting": "[1]; both, Sprague-Dawley, rat, in vivo, 2.4 mg/kg/day", "result": 1.24}, {"measurement": "AUC ratio (M/F)", "setting": "[1]; [3]", "result": 1.25}, {"measurement": "Cmax ratio (M/F)", "setting": "[1]; [3]", "result": 1.50}, {"measurement": "AUC ratio (M/F)", "setting": "[1]; [4]", "result": 0.672}, {"measurement": "Cmax ratio (M/F)", "setting": "[1]; [4]", "result": 1.17}, {"measurement": "riboflavin concentration in plasma", "setting": "[1]; female, Sprague-Dawley, rat, in vivo, 24 h", "result": 0.829, "unit": "µg/mL"}, {"measurement": "Tmax of riboflavin", "setting": "[1]; female, Sprague-Dawley, rat, in vivo, inhaled or intranasal, 0.96 mg/kg/day", "result": 0.00, "unit": "h"}, {"measurement": "Tmax of riboflavin", "setting": "[1]; female, Sprague-Dawley, rat, in vivo, inhaled or intranasal, 2.4 mg/kg/day", "result": 0.00, "unit": "h"}, {"measurement": "AUC ratio (M/F)", "setting": "[1]; [5]", "result": 0.433}, {"measurement": "Cmax ratio (M/F)", "setting": "[1]; [5]", "result": 0.801}, {"measurement": "AUC(0-T) of riboflavin", "setting": "[1]; [6]", "result": 15.9, "unit": "ng·h/mL"}, {"measurement": "Tmax of riboflavin", "setting": "[1]; [6]", "result": 0.00, "unit": "h"}, {"measurement": "Tmax of riboflavin", "setting": "[1]; male, Sprague-Dawley, rat, in vivo, inhaled or intranasal, 2.4 mg/kg/day", "result": 0.00, "unit": "h"}, {"measurement": "gender difference in riboflavin exposure", "setting": "[1]; rat, in vivo", "result": "no gender difference in riboflavin exposure"}, {"measurement": "riboflavin 5′-phosphate concentrations in plasma of treated animals", "setting": "[1]; rat, in vivo", "result": "detected in only very few treated animals"}, {"measurement": "riboflavin concentration values, males versus females", "setting": "[1]; rats, Day 1", "result": "slightly higher in males than in females"}, {"measurement": "% of particles <3.1 μm", "setting": "[2]; [7]", "result": 91.8, "unit": "%"}, {"measurement": "MMAD", "setting": "[2]; [7]", "result": 1.2, "unit": "μm"}, {"measurement": "% of particles <3.1 μm", "setting": "[2]; [8]", "result": 91.9, "unit": "%"}, {"measurement": "MMAD", "setting": "[2]; [8]", "result": 1.2, "unit": "μm"}, {"measurement": "% of particles <3.1 μm", "setting": "[2]; [9]", "result": 87.8, "unit": "%"}, {"measurement": "MMAD", "setting": "[2]; [9]", "result": 1.2, "unit": "μm"}]}]}
